Laboratory results reported in patent US9404081B2, “Pyruvate kinase activators for use in therapy” (AGIOS PHARMACEUTICALS, INC., priority 2011, dated 2016).

How the values were obtained:
Assay type in all cases: biochemical
PKR R510Q [1] = target: T1, PKR R510Q (Homo sapiens, UniProt P30613, R510Q); test: PKR R510Q Single Point Percent Activation Assay; details: for activation at 1 µM: read-out: Act. % 510Q
In short: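 Test compound was used at a single concentration of 1 μM and preincubated 60 min at room temperature with PKR R510Q (40 ng/well). The buffer was 50 mM Tris pH 7.5, 100 mM KCl, 5 mM MgCl2, 1 mM DTT and 0.03% BSA. The reaction was started with 0.2 mM ADP and read as OD340 in an LDH-coupled system (0.11 mM PEP, 180 μM NADH).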

PKR T384W [2] = target: PKR T384W (Homo sapiens, UniProt P30613, T384W); test: PKR T384W Single Point Percent Activation Assay; details: for activation at 1 µM: read-out: Act. % 384W
In short: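 Soluble PKR T384W (300 ng/well) preincubated 60 min at RT with 1 μM compound in 50 mM Tris pH 7.5, 100 mM KCl, 5 mM MgCl2, 1 mM DTT, 0.03% BSA. Started with ADP (0.08 mM); PEP 0.23 mM, LDH-coupled NADH (180 μM) consumption read at OD340, room temperature.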

PKR R532W [3] = target: T2, PKR R532W (Homo sapiens, UniProt P30613, R532W); test: PKR R532W Single Point Percent Activation Assay; details: for activation at 1 µM: read-out: Act, % 532W; for Act, % 532W: % activation at 1 μM
In short: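 PKR R532W (100 ng/well) preincubated 60 min at RT with compound at 1 μM in Tris pH 7.5, KCl, MgCl2, DTT, BSA. Reaction started with ADP (0.36 mM), with PEP 0.1 mM, NADH 180 μM and LDH coupling; read at OD340, room temperature.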

PKR R510Q [4] = target: T1, PKR R510Q; test: PKR Mutant Assay (AC50), PKR R510Q
Description: (§1) • PKR or PKR mutant enzyme solution was diluted in assay buffer. • 2 μL of test compound was added into wells first, and then 180 μL reaction mix was added. • Reactions mixture with test compound was assembled except for ADP, and plates were stored for 60 minutes at room temperature. • 20 uL ADP was added to start reaction at room temperature and reaction progress was measured as changes in absorbance at 340 nm wavelength at room temperature.
(§2) Test Compound Preparation: • Test compound stock was made at 100× concentration in 100% DMSO (10 mM) • 1 to 3 dilutions were made for 11 points (i.e. 50 μl of first concentration added to 100 μl 100% DMSO to yield 3.33 mM, 50 μl of this added to 100 μl DMSO to yield 1.11 mM, and so forth) • 1 to 100 dilution into assay (2 μl in 200 μl) yielded starting concentration of 100 μM, decreasing 3 fold for 11 points. Assay Buffer: 100 mM KCl, 50 mM Tris 7.5, 5 mM MgCl2, 1 mM DTT, 0.03% BSA Reaction Mixture: PKR mutant enzyme: 80-400 ng/well; ADP: 0.22-1.65 mM; PEP: 0.1-0.5 mM; NADH: 180 uM; LDH: 0.5 units (Sigma#59023); DTT: 1 mM; BSA: 0.03%.

PKR wt = PKR wt (Homo sapiens, UniProt P30613); test: PKR WT Single Point Percent Activation Assay
In short: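 Single concentration of 1 μM compound preincubated 60 min at RT with PKR wt (100 ng/well) in Tris pH 7.5, KCl, MgCl2, DTT, BSA. Reaction started with ADP (0.48 mM final) with PEP 0.15 mM, coupled LDH/NADH (180 μM), read at OD340, room temperature; given as percent activation.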

PKR R532W [5] = target: T2, PKR R532W; test: PKR Mutant Assay (AC50), PKR R532W
Description: as §1, §2

wild type PKR = wild type PKR (Homo sapiens, UniProt P30613); test: PKR Mutant Assay (AC50), wild type PKR; details: read-out: PKR WT AC50
Description: as §1, §2

PKR T384W [6] = target: PKR T384W (Homo sapiens, UniProt P30613); test: PKR Mutant Assay (AC50), PKR T384W
Description: as §1, §2

PKR R479H = PKR R479H (Homo sapiens, UniProt P30613, R479H); test: PKR Mutant Assay (AC50), PKR R479H
Description: as §1, §2

PKR G364D = PKR G364D (Homo sapiens, UniProt P30613, G364D); test: PKR Mutant Assay (AC50), PKR G364D
Description: as §1, §2

T1 sequence (P30613 whole entry R510Q): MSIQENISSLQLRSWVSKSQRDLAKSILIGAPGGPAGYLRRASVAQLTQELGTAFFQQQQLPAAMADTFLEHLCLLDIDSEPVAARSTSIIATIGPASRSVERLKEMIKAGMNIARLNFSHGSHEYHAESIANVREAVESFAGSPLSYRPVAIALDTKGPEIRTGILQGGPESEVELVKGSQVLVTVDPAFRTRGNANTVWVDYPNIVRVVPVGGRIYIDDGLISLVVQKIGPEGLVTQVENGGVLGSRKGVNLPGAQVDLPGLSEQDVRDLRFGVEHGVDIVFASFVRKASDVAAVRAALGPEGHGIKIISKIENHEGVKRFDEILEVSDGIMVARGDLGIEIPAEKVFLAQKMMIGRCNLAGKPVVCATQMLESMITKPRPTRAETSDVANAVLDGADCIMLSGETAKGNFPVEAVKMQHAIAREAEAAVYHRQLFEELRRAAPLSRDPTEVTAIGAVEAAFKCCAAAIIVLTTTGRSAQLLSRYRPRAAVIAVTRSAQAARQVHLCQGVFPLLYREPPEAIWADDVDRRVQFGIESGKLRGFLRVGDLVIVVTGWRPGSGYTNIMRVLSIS
T2 sequence (P30613 whole entry R532W): as the sequence (P30613 whole entry R510Q) above, with Q510R, R532W counted along it
Chain of PKR R479H (P30613 whole entry R479H): as the sequence (P30613 whole entry R510Q) above, with R479H, Q510R counted along it
Chain of PKR wt (P30613 whole entry): as the sequence (P30613 whole entry R510Q) above, with Q510R counted along it
Chain of wild type PKR (P30613 whole entry): as the sequence (P30613 whole entry R510Q) above, with Q510R counted along it
Chain of PKR T384W (Homo sapiens, UniProt P30613, T384W) (P30613 whole entry T384W): as the sequence (P30613 whole entry R510Q) above, with T384W, Q510R counted along it
Chain of PKR T384W (Homo sapiens, UniProt P30613) (P30613 whole entry T384M): as the sequence (P30613 whole entry R510Q) above, with T384M, Q510R counted along it
Chain of PKR G364D (P30613 whole entry G364D): as the sequence (P30613 whole entry R510Q) above, with G364D, Q510R counted along it

| activation at 1 µM (PKR R510Q [1]) [%] | activation at 1 µM (PKR T384W [2]) [%] | activation at 1 µM (PKR R532W [3]) [%] | activation at 1 µM (PKR wt) [%] | Structure (SMILES) | other results |
| --- | --- | --- | --- | --- | --- |
| 101 to 500 | 101 to 500 | 101 to 500 | 101 to 500 | C[C@@H]1CN(C(=O)c2ccc(NS(=O)(=O)c3cccc4cccnc34)cc2)CCN1Cc1ccccc1 | – |
| 101 to 500 | 101 to 500 | 101 to 500 | 101 to 500 | CC(C)OC(=O)N1CCN(C(=O)c2ccc(NS(=O)(=O)c3cccc4cccnc34)cc2)[C@H](C)C1 | AC50 (PKR R532W [5]): < 0.1 µM; AC50 (PKR R510Q [4]): > 0.5 µM; AC50 (wild type PKR): < 0.1 µM |
| 101 to 500 | 101 to 500 | 101 to 500 | 101 to 500 | C[C@@H]1CN(C(=O)OC2CCCOC2)CCN1C(=O)c1ccc(NS(=O)(=O)c2cccc3cccnc23)cc1 (some centres unmarked) | – |
| 1 to 100 | 1 to 100 | 1 to 100 | 101 to 500 | C[C@@H]1CN(C(=O)OCC2CCCO2)CCN1C(=O)c1ccc(NS(=O)(=O)c2cccc3cccnc23)cc1 (some centres unmarked) | – |
| 1 to 100 | 101 to 500 | 101 to 500 | 101 to 500 | COc1cccc(CN2CCN(C(=O)c3ccc(NS(=O)(=O)c4cccc5cccnc45)cc3)[C@H](C)C2)c1OC | – |
| 1 to 100 | 101 to 500 | 101 to 500 | 101 to 500 | C[C@@H]1CN(Cc2c(F)ccc(F)c2F)CCN1C(=O)c1ccc(NS(=O)(=O)c2cccc3cccnc23)cc1 | – |
| 1 to 100 | 101 to 500 | 101 to 500 | 101 to 500 | CC[C@H]1CN(Cc2ccc(F)cc2)CCN1C(=O)c1ccc(NS(=O)(=O)c2cccc3cccnc23)cc1 | – |
| 1 to 100 | 101 to 500 | 1 to 100 | 101 to 500 | C[C@H]1CN(Cc2c(F)ccc(F)c2F)CCN1C(=O)c1ccc(NS(=O)(=O)c2cccc3cccnc23)cc1 | – |
| 101 to 500 | 101 to 500 | 101 to 500 | 101 to 500 | COc1ccccc1N1CCN(C(=O)c2ccc(NS(=O)(=O)c3cccc4cccnc34)cc2)C(C)C1 (centres unmarked) | AC50 (PKR T384W [6]): < 0.1 µM; AC50 (PKR R479H): < 0.1 µM; AC50 (PKR G364D): 0.101 to 0.5 µM; AC50 (PKR R532W [5]): < 0.1 µM; AC50 (PKR R510Q [4]): > 0.5 µM; AC50 (wild type PKR): < 0.1 µM |
| 1 to 100 | 1 to 100 | – | 1 to 100 | C[C@H]1CN(Cc2ccc(F)c(F)c2F)CCN1C(=O)c1ccc(NS(=O)(=O)c2cccc3cccnc23)cc1 [drawing 66] | Act, % 532W (PKR R532W [3]): A (a % activation at 1 μM of from 1 to 100) |

The next lines start with the molecule.

| Structure (SMILES) | activation at 1 µM (PKR R510Q [1]) [%] | activation at 1 µM (PKR T384W [2]) [%] | activation at 1 µM (PKR R532W [3]) [%] | activation at 1 µM (PKR wt) [%] | other results |
| --- | --- | --- | --- | --- | --- |
| CC1CN(Cc2ccccc2)CC(C)N1C(=O)c1ccc(NS(=O)(=O)c2cccc3cccnc23)cc1 (centres unmarked) | 101 to 500 | 101 to 500 | 101 to 500 | 101 to 500 | AC50 (PKR R510Q [4]): < 0.1 µM |
| CC(C)OC(=O)N1[C@H](C)CN(C(=O)c2ccc(NS(=O)(=O)c3cccc4cccnc34)cc2)C[C@@H]1C | 101 to 500 | 101 to 500 | 101 to 500 | 101 to 500 | AC50 (PKR R532W [5]): > 0.5 µM; AC50 (wild type PKR): < 0.1 µM |
| CCOC(=O)N1CCN(C(=O)c2ccc(NS(=O)(=O)c3cccc4cccnc34)cc2)[C@@H](C)C1 | 1 to 100 | 101 to 500 | 101 to 500 | 101 to 500 | AC50 (PKR R532W [5]): > 0.5 µM; AC50 (wild type PKR): > 0.5 µM |
| C[C@@H]1CN(C(=O)OC2CCOCC2)CCN1C(=O)c1ccc(NS(=O)(=O)c2cccc3cccnc23)cc1 | 1 to 100 | 1 to 100 | 1 to 100 | 1 to 100 | – |
| C[C@@H]1CN(Cc2ccc(Cl)c(F)c2)CCN1C(=O)c1ccc(NS(=O)(=O)c2cccc3cccnc23)cc1 | 1 to 100 | 1 to 100 | 101 to 500 | 101 to 500 | – |
| C[C@@H]1CN(C(=O)O[C@@H]2CCOC2)CCN1C(=O)c1ccc(NS(=O)(=O)c2cccc3cccnc23)cc1 | 1 to 100 | 1 to 100 | 101 to 500 | 101 to 500 | – |
| C[C@@H]1CN(C(=O)OC2CCCC2)CCN1C(=O)c1ccc(NS(=O)(=O)c2cccc3cccnc23)cc1 | 101 to 500 | 101 to 500 | 101 to 500 | 101 to 500 | – |
| C[C@@H]1CN(Cc2ccc(F)cc2)CCN1C(=O)c1ccc(NS(=O)(=O)c2cccc3cccnc23)cc1 | 1 to 100 | 101 to 500 | 101 to 500 | 101 to 500 | – |
| CC(c1ccc(F)cc1)N1CCN(C(=O)c2ccc(NS(=O)(=O)c3cccc4cccnc34)cc2)[C@H](C)C1 (some centres unmarked) | 101 to 500 | 101 to 500 | 101 to 500 | 101 to 500 | – |
| CC(c1cc(F)cc(F)c1)N1CCN(C(=O)c2ccc(NS(=O)(=O)c3cccc4cccnc34)cc2)[C@H](C)C1 (some centres unmarked) | 101 to 500 | 101 to 500 | 101 to 500 | 101 to 500 | – |
| CC[C@H]1CN(Cc2cc(F)cc(F)c2)CCN1C(=O)c1ccc(NS(=O)(=O)c2cccc3cccnc23)cc1 | 101 to 500 | 101 to 500 | 101 to 500 | 101 to 500 | – |
| C[C@H]1CN(Cc2cc(F)cc(F)c2F)CCN1C(=O)c1ccc(NS(=O)(=O)c2cccc3cccnc23)cc1 | 1 to 100 | 101 to 500 | 1 to 100 | 101 to 500 | – |
| C[C@H]1CN(Cc2ccc(Cl)c(F)c2)CCN1C(=O)c1ccc(NS(=O)(=O)c2cccc3cccnc23)cc1 | 101 to 500 | 1 to 100 | 101 to 500 | 101 to 500 | – |
| C[C@H]1CN(CC2CCOC2)CCN1C(=O)c1ccc(NS(=O)(=O)c2cccc3cccnc23)cc1 (some centres unmarked) | 101 to 500 | 1 to 100 | 1 to 100 | 101 to 500 | – |
| C[C@H]1CN(CC2CCCC2)CCN1C(=O)c1ccc(NS(=O)(=O)c2cccc3cccnc23)cc1 | 101 to 500 | 101 to 500 | 1 to 100 | 101 to 500 | – |
| C[C@H]1CN(Cc2cc(F)cc(F)c2)CCN1C(=O)c1ccc(NS(=O)(=O)c2cccc3cccnc23)cc1 | 101 to 500 | 101 to 500 | 1 to 100 | 101 to 500 | – |
| O=C(c1ccc(NS(=O)(=O)c2cccc3cccnc23)cc1)N1CCN(C[C@H]2CCOC2)CC1 | 101 to 500 | 101 to 500 | 1 to 100 | 101 to 500 | AC50 (PKR T384W [6]): < 0.1 µM; AC50 (PKR R479H): < 0.1 µM; AC50 (PKR R532W [5]): < 0.1 µM; AC50 (PKR R510Q [4]): 0.101 to 0.5 µM; AC50 (wild type PKR): < 0.1 µM |
| O=C(c1ccc(NS(=O)(=O)c2cccc3cccnc23)cc1)N1CCN(C[C@@H]2CCOC2)CC1 | 101 to 500 | 101 to 500 | 1 to 100 | 1 to 100 | AC50 (PKR T384W [6]): < 0.1 µM; AC50 (PKR R479H): < 0.1 µM; AC50 (PKR R532W [5]): < 0.1 µM; AC50 (PKR R510Q [4]): 0.101 to 0.5 µM; AC50 (wild type PKR): < 0.1 µM |
| C[C@H]1CN(Cc2ccc(F)c(F)c2F)CCN1C(=O)c1ccc(NS(=O)(=O)c2cccc3cccnc23)cc1 [drawing 87] | – | – | – | – | Act. % 510Q (PKR R510Q [1]; % activation at 1 μM): A (a % activation at 1 μM of from 1 to 100); Act. % 384W (PKR T384W [2]; % activation at 1 μM): A (a % activation at 1 μM of from 1 to 100); Act, % 532W (PKR R532W [3]): B (a % activation at 1 μM of from 101 to 500); Act. % WT (PKR wt; % activation at 1 μM): A (a % activation at 1 μM of from 1 to 100) |
